Laboratory results taken from patent publication US10174044B2, “Fused pyridines as kinase inhibitors” (BRISTOL-MYERS SQUIBB COMPANY, priority 2015, dated 2019).

These molecules were tested against GST-Xa-hAAK1 (Homo sapiens (Human), UniProt Q2M2I8) (assay: AAK1 Kinase Assay). Conditions: bacterially expressed GST-Xa-hAAK1 3.5 nM; ATP 22 μM; fluoresceinated peptide substrate 1.5 μM; 3 hours at room temperature.
Assay type: biochemical
Experimental: The assays were performed in U-bottom 384-well plates. […] The reactions were initiated by the combination of bacterially expressed, GST-Xa-hAAK1 with substrates and test compounds. The reactions were incubated at room temperature for 3 hours and terminated by adding 60 μl of 35 mM EDTA buffer to each sample. The reactions were analyzed on the Caliper LabChip 3000 (Caliper, Hopkinton, Mass.) by electrophoretic separation of the fluorescent substrate and phosphorylated product. […] Compounds were dissolved at 10 mM in dimethylsulfoxide (DMSO) and evaluated at eleven concentrations. IC50 values were derived by non-linear regression analysis.

GST-Xa-hAAK1, sequence (Q2M2I8 whole entry): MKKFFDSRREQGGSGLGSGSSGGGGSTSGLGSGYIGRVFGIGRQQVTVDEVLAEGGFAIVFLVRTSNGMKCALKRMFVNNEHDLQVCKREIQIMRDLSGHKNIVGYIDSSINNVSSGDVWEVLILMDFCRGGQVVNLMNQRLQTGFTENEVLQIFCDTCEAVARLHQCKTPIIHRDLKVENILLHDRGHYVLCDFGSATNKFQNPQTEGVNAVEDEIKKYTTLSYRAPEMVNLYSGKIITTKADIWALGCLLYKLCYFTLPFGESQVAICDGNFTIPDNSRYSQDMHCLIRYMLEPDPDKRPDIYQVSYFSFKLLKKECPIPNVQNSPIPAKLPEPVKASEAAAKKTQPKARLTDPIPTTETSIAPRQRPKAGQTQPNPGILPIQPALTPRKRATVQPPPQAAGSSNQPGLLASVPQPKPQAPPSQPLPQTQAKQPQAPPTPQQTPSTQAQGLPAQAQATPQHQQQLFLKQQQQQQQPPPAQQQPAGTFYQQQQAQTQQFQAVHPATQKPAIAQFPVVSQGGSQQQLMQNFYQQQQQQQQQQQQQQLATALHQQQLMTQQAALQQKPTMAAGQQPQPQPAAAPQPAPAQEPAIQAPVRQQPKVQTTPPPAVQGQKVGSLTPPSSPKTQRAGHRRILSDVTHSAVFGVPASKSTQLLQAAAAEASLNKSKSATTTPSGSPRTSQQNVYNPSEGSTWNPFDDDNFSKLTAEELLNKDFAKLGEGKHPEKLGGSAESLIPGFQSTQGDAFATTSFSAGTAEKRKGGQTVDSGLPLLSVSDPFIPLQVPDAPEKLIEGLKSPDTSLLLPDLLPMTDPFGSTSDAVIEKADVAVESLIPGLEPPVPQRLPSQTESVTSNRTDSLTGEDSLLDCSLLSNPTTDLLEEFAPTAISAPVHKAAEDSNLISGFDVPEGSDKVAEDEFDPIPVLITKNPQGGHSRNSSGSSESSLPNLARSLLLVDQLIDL

| SMILES | IC50 |
| --- | --- |
| Cc1nccc2c3ccc(OC[C@@](C)(N)CC(C)C)cc3c(=O)n(CCO)c12 [Example 21, (S)-8-((2-amino-2,4-dimethylpentyl)oxy)-5-(2-hydroxyethyl)-4-methylbenzo[c][1,7]naphthyridin-6(5H)-one] | 1130 nM |
| CC(C)C[C@H](N)COc1ccc2c(c1)COc1cnccc1-2 [Example 29, (S)-1-((6H-isochromeno[3,4-c]pyridin-8-yl)oxy)-4-methylpentan-2-amine] | 13 nM |
| COC(=O)Nc1cc2c(cn1)OCc1c-2ccc(OC[C@@](C)(N)CC(C)C)c1F [Example 45, (S)-methyl (8-((2-amino-2,4-dimethylpentyl)oxy)-7-fluoro-6H-isochromeno[3,4-c]pyridin-2-yl)carbamate] | 0.91 nM |
| Cc1nccc2c3ccc(OC[C@](C)(N)CC(C)C)cc3c(=O)n(C)c12 [Example 11, (R)-8-((2-amino-2,4-dimethylpentyl)oxy)-4,5-dimethylbenzo[c][1,7]naphthyridin-6(5H)-one] | 92 nM |
| Cc1cc2c(cc1OC[C@@H](N)CC(C)C)COc1cnccc1-2 [Example 32, (S)-4-methyl-1-((9-methyl-6H-isochromeno[3,4-c]pyridin-8-yl)oxy)pentan-2-amine] | 3.2 nM |
| Cc1nccc2c3cc(Cl)c(OC[C@@](C)(N)CC(C)C)cc3c(=O)n(C(C)C)c12 [Example 25, (S)-8-((2-amino-2,4-dimethylpentyl)oxy)-9-chloro-5-isopropyl-4-methylbenzo[c][1,7]naphthyridin-6(5H)-one] | 227 nM |
| CC(=O)Nc1cc2c(cn1)OCc1cc(OC[C@](C)(N)CC(C)C)ccc1-2 [Example 38, (R)—N-(8-((2-amino-2,4-dimethylpentyl)oxy)-6H-isochromeno[3,4-c]pyridin-2-yl)acetamide] | 7.7 nM |
| Cc1cc2c3ccc(OC[C@@](C)(N)CC(C)C)c(Cl)c3c(=O)n(C)c2cn1 [Example 18, (S)-8-((2-amino-2,4-dimethylpentyl)oxy)-7-chloro-2,5-dimethylbenzo[c][1,7]naphthyridin-6(5H)-one] | 3 nM |
| Cc1nccc2c3cc(Cl)c(OC[C@@H](N)CC(C)C)cc3c(=O)n(C)c12 [Example 5, (S)-8-((2-amino-4-methylpentyl)oxy)-9-chloro-4,5-dimethylbenzo[c][1,7]naphthyridin-6(5H)-one] | 87 nM |
| CC(C)C[C@H](N)COc1ccc2c(c1)COc1cnc(N)cc1-2 [Example 35, (S)-8-((2-amino-4-methylpentyl)oxy)-6H-isochromeno[3,4-c]pyridin-2-amine] | 11 nM |
| [2H]C([2H])([2H])n1c(=O)c2cc(OC[C@@](C)(N)CC(C)C)ccc2c2ccnc(C)c21 [Example 23, (S)-8-((2-amino-2,4-dimethylpentyl)oxy)-4-methyl-5-(trideuteromethyl)benzo[c][1,7]naphthyridin-6(5H)-one] | 46 nM |
| CCn1c(=O)c2cc(OC[C@@](C)(N)CC(C)C)ccc2c2ccnc(C)c21 [Example 19, (S)-8-((2-amino-2,4-dimethylpentyl)oxy)-5-ethyl-4-methylbenzo[c][1,7]naphthyridin-6(5H)-one] | 1340 nM |
| CC(C)C[C@](C)(N)COc1ccc2c(c1)COc1cnc(C(F)F)cc1-2 [Example 48, (S)-1-((2-(difluoromethyl)-6H-isochromeno[3,4-c]pyridin-8-yl)oxy)-2,4-dimethylpentan-2-amine] | 13 nM |
| CC(C)C[C@](C)(N)COc1ccc2c(c1)COc1cnc(N)cc1-2 [Example 53, (S)-8-((2-amino-2,4-dimethylpentyl)oxy)-6H-isochromeno[3,4-c]pyridin-2-amine] | 4.4 nM |
| [2H]C([2H])(Oc1cc2c(=O)n(CC)c3c(C)nccc3c2cc1Cl)C(C)(N)CC(C)C (centres unmarked) [Example 12, 8-((2-amino-1,1-dideutero-2,4-dimethylpentyl)oxy)-9-chloro-5-ethyl-4-methylbenzo[c][1,7]naphthyridin-6(5H)-one] | 30 nM |
| CC(C)C[C@](C)(N)COc1ccc2c(c1)COc1cnc(S(C)(=O)=O)cc1-2 [Example 59, (S)-2,4-dimethyl-1-((2-(methylsulfonyl)-6H-isochromeno[3,4-c]pyridin-8-yl)oxy)pentan-2-amine] | 184 nM |
| Cc1nccc2c3ccc(OC[C@@](C)(N)CC(C)C)c(Cl)c3c(=O)n(C)c12 [Example 15, (S)-8-((2-amino-2,4-dimethylpentyl)oxy)-7-chloro-4,5-dimethylbenzo[c][1,7]naphthyridin-6(5H)-one] | 59 nM |
| CC(C)C[C@](C)(N)COc1ccc2c(c1Cl)COc1cnc(N)cc1-2 [Example 61, (S)-8-((2-amino-2,4-dimethylpentyl)oxy)-7-chloro-6H-isochromeno[3,4-c]pyridin-2-amine] | 0.41 nM |
| CC(C)C[C@](C)(N)COc1ccc2c(c1)COc1cnc(NS(=O)(=O)C3CC3)cc1-2 [Example 56, (S)—N-(8-((2-amino-2,4-dimethylpentyl)oxy)-6H-isochromeno[3,4-c]pyridin-2-yl)cyclopropanesulfonamide] | 37 nM |

| SMILES | IC50 |
| --- | --- |
| COC(=O)Nc1cc2c(cn1)OCc1cc(OCC(C)(N)CC(C)C)ccc1-2 (centres unmarked) [Example 39, methyl (8-((2-amino-2,4-dimethylpentyl)oxy)-6H-isochromeno[3,4-c]pyridin-2-yl)carbamate] | 8.1 nM |
| CC(C)C[C@H](N)COc1ccc2c(c1)C(C)Oc1cnccc1-2 (stereo partly drawn) [Example 30, (2S)-4-methyl-1-((6-methyl-6H-isochromeno[3,4-c]pyridin-8-yl)oxy)pentan-2-amine] | 17 nM |
| COC(=O)Nc1cc2c(cn1)OCc1c-2ccc(OC[C@@](C)(N)CC(C)C)c1Cl [Example 62, (S)-methyl (8-((2-amino-2,4-dimethylpentyl)oxy)-7-chloro-6H-isochromeno[3,4-c]pyridin-2-yl)carbamate] | 0.81 nM |
| CC(C)C[C@](C)(N)COc1ccc2c(c1)COc1cnc(F)cc1-2 [Example 57, (S)-1-((2-fluoro-6H-isochromeno[3,4-c]pyridin-8-yl)oxy)-2,4-dimethylpentan-2-amine] | 34 nM |
| CC(C)C[C@H](N)COc1ccc2c(c1)c(=O)[nH]c1cnccc12 [Example 1, (S)-8-((2-amino-4-methylpentyl)oxy)benzo[c][1,7]naphthyridin-6(5H)-one] | 9.5 nM |
| Cc1cc2c(cn1)OCc1cc(OC[C@@](C)(N)CC(C)C)ccc1-2 [Example 51, (S)-2,4-dimethyl-1-((2-methyl-6H-isochromeno[3,4-c]pyridin-8-yl)oxy)pentan-2-amine] | 121 nM |
| CCOC(=O)Nc1cc2c(cn1)OCc1cc(OC[C@](C)(N)CC(C)C)ccc1-2 [Example 40, (R)-ethyl (8-((2-amino-2,4-dimethylpentyl)oxy)-6H-isochromeno[3,4-c]pyridin-2-yl)carbamate] | 1.3 nM |
| CC(C)CC(C)(N)COc1ccc2c(c1)c(=O)n(C)c1cnccc21 (centres unmarked) [Example 7, 8-((2-amino-2,4-dimethylpentyl)oxy)-5-methylbenzo[c][1,7]naphthyridin-6(5H)-one] | 31 nM |
| Cc1cc2c(cc1OC[C@@](C)(N)CC(C)C)c(=O)n(C)c1c(C)nccc21 [Example 26, (S)-8-((2-amino-2,4-dimethylpentyl)oxy)-4,5,9-trimethylbenzo[c][1,7]naphthyridin-6(5H)-one] | 5.4 nM |
| CCOC(=O)Nc1nc(Cl)c2c(c1Cl)-c1ccc(OC[C@@](C)(N)CC(C)C)cc1CO2 [Example 46, (S)-ethyl (8-((2-amino-2,4-dimethylpentyl)oxy)-1,4-dichloro-6H-isochromeno[3,4-c]pyridin-2-yl)carbamate] | 45 nM |
| [2H]C([2H])(Oc1ccc2c(c1)c(=O)n(C)c1c(C)nccc21)C(C)(N)CC(C)C (centres unmarked) [Example 13, 8-((2-amino-1,1-dideutero-2,4-dimethylpentyl)oxy)-4,5-dimethylbenzo[c][1,7]naphthyridin-6(5H)-one] | 117 nM |
| Cc1cc2c3ccc(OC[C@@](C)(N)CC(C)C)c(C)c3c(=O)n(C)c2cn1 [Example 20, (S)-8-((2-amino-2,4-dimethylpentyl)oxy)-2,5,7-trimethylbenzo[c][1,7]naphthyridin-6(5H)-one] | 4.1 nM |
| Cc1nccc2c1OCc1cc(OC[C@@](C)(N)CC(C)C)ccc1-2 [Example 50, (S)-2,4-dimethyl-1-((4-methyl-6H-isochromeno[3,4-c]pyridin-8-yl)oxy)pentan-2-amine] | 11 nM |
| CC(C)C[C@](C)(N)COc1ccc2c(c1)COc1c-2ccnc1Cl [Example 52, (S)-1-((4-chloro-6H-isochromeno[3,4-c]pyridin-8-yl)oxy)-2,4-dimethylpentan-2-amine] | 2.2 nM |
| CC(C)C[C@H](N)COc1ccc2c(c1)c(=O)n(C)c1cnccc21 [Example 2, (S)-8-((2-amino-4-methylpentyl)oxy)-5-methylbenzo[c][1,7]naphthyridin-6(5H)-one] | 37 nM |
| [2H]C([2H])([2H])n1c(=O)c2cc(OC[C@@](C)(N)CC(C)C)c(Cl)cc2c2ccnc(C)c21 [Example 22, (S)-8-((2-amino-2,4-dimethylpentyl)oxy)-9-chloro-4-methyl-5-(trideuteromethyl)benzo[c][1,7]naphthyridin-6(5H)-one] | 3.2 nM |
| CC(C)C[C@H](N)COc1ccc2c(c1)C(C)(C)Oc1cnccc1-2 [Example 31, (S)-1-((6,6-dimethyl-6H-isochromeno[3,4-c]pyridin-8-yl)oxy)-4-methylpentan-2-amine] | 235 nM |
| COC(=O)Nc1ncc2c(c1Cl)-c1cc(F)c(OC[C@@](C)(N)CC(C)C)cc1CO2 [Example 58, (S)-methyl (8-((2-amino-2,4-dimethylpentyl)oxy)-1-chloro-9-fluoro-6H-isochromeno[3,4-c]pyridin-2-yl)carbamate] | 18 nM |
| Cc1cc2c3ccc(OC[C@@](C)(N)CC(C)C)cc3c(=O)n(C)c2cn1 [Example 14, (S)-8-((2-amino-2,4-dimethylpentyl)oxy)-2,5-dimethylbenzo[c][1,7]naphthyridin-6(5H)-one] | 8.1 nM |
